Laboratory results published in article PMC5609566, “Elucidation of antimicrobial activity and mechanism of action by N-substituted carbazole derivatives” (Bioorganic & Medicinal Chemistry Letters, 2017).

What was measured:
S. cerevisiae H^+-ATPase = target: T1, S. cerevisiae H^+-ATPase (Saccharomyces cerevisiae, UniProt P05030); assay: NADH-coupled ATPase assay, initial rate of ATP hydrolysis; assay type: biochemical; conditions: pH 7, n = 3
T1 construct: transformed with the full-length cDNA of the S. cerevisiae plasma membrane H^+-ATPase isoform PMA1; made in house; host or cells: S. cerevisiae RS72
T1 sequence (P05030 whole entry, canonical isoform): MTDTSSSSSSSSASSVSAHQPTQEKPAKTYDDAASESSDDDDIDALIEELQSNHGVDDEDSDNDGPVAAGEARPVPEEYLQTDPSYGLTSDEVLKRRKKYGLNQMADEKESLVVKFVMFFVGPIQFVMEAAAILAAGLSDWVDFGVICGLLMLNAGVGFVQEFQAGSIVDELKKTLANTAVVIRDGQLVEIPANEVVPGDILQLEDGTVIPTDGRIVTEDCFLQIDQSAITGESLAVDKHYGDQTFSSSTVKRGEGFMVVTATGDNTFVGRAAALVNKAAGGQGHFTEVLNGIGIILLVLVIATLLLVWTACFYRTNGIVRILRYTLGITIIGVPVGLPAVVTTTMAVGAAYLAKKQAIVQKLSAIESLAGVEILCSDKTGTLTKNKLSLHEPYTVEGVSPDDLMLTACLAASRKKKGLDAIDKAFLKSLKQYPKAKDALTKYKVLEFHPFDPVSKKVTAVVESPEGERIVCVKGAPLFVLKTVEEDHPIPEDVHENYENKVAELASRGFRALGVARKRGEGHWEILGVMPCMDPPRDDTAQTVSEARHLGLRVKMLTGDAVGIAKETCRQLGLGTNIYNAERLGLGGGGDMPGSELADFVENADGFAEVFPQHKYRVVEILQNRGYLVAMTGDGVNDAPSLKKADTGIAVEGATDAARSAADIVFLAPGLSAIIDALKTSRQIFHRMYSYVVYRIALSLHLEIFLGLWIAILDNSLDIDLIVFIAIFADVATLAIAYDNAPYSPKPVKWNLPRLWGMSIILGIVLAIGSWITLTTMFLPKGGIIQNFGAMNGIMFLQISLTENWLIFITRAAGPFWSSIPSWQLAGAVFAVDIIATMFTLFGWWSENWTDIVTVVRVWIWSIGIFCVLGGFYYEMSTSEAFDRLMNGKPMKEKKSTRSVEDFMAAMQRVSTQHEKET
Procedure: To investigate whether the ATPase inhibition observed was due to compound binding at the ATP binding site, three compounds (5, 7, and 10) were selected for further evaluation in an ATPase activity assay on S. cerevisiae H^+-ATPase-containing membranes in presence of increasing ATP concentrations. The initial rate of ATP turnover was measured spectrophotometrically by an NADH-coupled ATPase activity assay that uses phosphoenolpyruvate to regenerate ATP, as described in Møller et al., 1980.[18]
Fig. 5 Kinetics of H^+-ATPase inhibition by carbazole compounds. The initial rate of ATP hydrolysis catalyzed by S. cerevisiae H^+-ATPase was determined by an NADH-coupled ATPase assay, as described in the Supporting Information. The reaction was initiated by the addition of H^+-ATPase-containing membranes (arrows with “H^+-ATPase”) to a pH 7 buffer containing 5 mM ATP. At the indicated times the respective compounds were added to give the final compound concentrations shown in the figure and a final DMSO concentration of 1.1%.
Fig. 6 Compound dependence of the initial rate of H^+-ATPase activity at 1 mM (triangles) or 10 mM (circles) ATP. The initial rates following compound addition deduced from experiments similar to those shown in Fig. 5 were normalized to the maximal rate obtained at 10 mM ATP in the absence of compound (presence of 1.1% DMSO) and plotted as a function of the compound concentration.
The initial rate of ATP turnover at RT was measured spectrophotometrically at 340 nm by an NADH-coupled ATPase assay that uses phosphoenolpyruvate to regenerate ATP, as described in Møller et al., 1980^4. The reaction buffer contained 17.5 mM MOPS-NaOH pH 7, 44 mM KNO3, 22 mM NaN3, 0.22 mM Na2MoO4, 1 mM phosphoenolpyruvate, 0.27 mM NADH, 83 µg/ml pyruvate kinase, 22 µg/ml L-lactate dehydrogenase, either 1, 5 or 10 mM ATP, and MgSO4 to give a Mg^2+ concentration of 2 mM in excess over the ATP concentration. The ATPase reaction was initiated by the addition of 0.2-0.3 mg/ml of S. cerevisiae Pma1-containing membranes followed by addition of compound (resulting in a final DMSO concentration of 1.1%).

C. albicans cells = assay: Intracellular ATP determination; assay type: cell-based; conditions: compound at 20 µM, 30 minutes, mean ± SEM n = 5
Description: (§1) It was subsequently evaluated whether or not the carbazoles were able to prevent extracellular acidification of the surrounding media by blocking the pumping activity of the H^+-ATPase within fungal cells.[15] […] The H^+-ATPase requires ATP to transport protons out of fungal cells. Consequently, a decrease in intracellular ATP (iATP) levels will indirectly affect H^+-ATPase activity. […] In all cases, iATP levels were […] in C. albicans cells exposed to carbazoles compared to the untreated control. […] This implies that the carbazoles need to pass the fungal membrane to inhibit the H^+-ATPase and 7, 18 and 19 may have reduced membrane permeability.
C. albicans cells were transferred to 3 ml of YPD media and grown overnight at 30 °C and 150 rpm. The cells were pelleted at 2000 × g for 2 min. and washed in PBS (Sigma-Aldrich, catalog number 8537) twice before re-suspension to an OD600 of 0.1. Cell suspension (98 µL) and 2 µl compound in DMSO were incubated for 30 minutes at RT. Forty microliters of this suspension was then transferred to a black 96-well plate containing 40 µl BacTiterGlo reagent (Promega, Madison, WI) and the plate was incubated for 15 minutes in the dark at room temperature. Luminescence was read on a SpectraMax X5 (Molecular Devices, Sunnyvale, CA) plate reader with 10 s shake and 0.5 s integration time. A standard curve containing 10, 100 and 1000 nM ATP was prepared for every experiment.

C. albicans = assay: Extracellular acidification assay; assay type: cell-based; conditions: Candida albicans, mean ± SEM n = 3
Description: as §1
(§2) The ability of S. cerevisiae and C. albicans to acidify the media upon glucose addition was evaluated using the pH sensor dextran (40,000MW)-fluorescein-isothiocyanate as described in Kjellerup et al., 2017^6. Briefly, the cells was starved overnight in 50 mM KCl, pH 6.7 at 4 °C. The cell suspension (Final OD600 of 0.19) was mixed with 1.3 µg/ml dextran (40,000MW)-fluorescein-isothiocyanate, 1.5 % DMSO containing inhibitors and the assay initiated with the addition of 2 % D-(+)-glucose. The rate of media acidification was calculated based on the slope of the fluorescent drop in the first 12 minutes after glucose addition.

S. cerevisiae = assay: Extracellular acidification assay; assay type: cell-based; conditions: Saccharomyces cerevisiae, mean ± SEM n = 3
Description: as §1, §2

C. albicans (SC5314) = assay: Time-kill assay; assay type: cell-based
Procedure: (§3) Time-kill studies were carried out to investigate whether the antifungal activity observed for 10 was fungistatic or fungicidal. Given the essential nature of fungal H^+-ATPase, it is anticipated that compounds targeting H^+-ATPase activity will promote fungicidal effects.[21]
(§4) Fig. 7 Time-kill data for C. albicans and C. glabrata cells (1 × 10^5 CFU/ml) incubated with DMSO (final concentration 1%), 1 µM AMB, and 5 or 10 µM of compound 10.
(§5) C. albicans (SC5314) and C. glabrata (ATCC 90030) cells (1 x 10^5 CFU/ml) were incubated in 10 mL RPMI media at 30 °C with gentle agitation (150 rpm) in the presence of amphotericin B (1 µM) or compound 10 at a concentration of 5 or 10 µM. At the indicated time points (0, 1, 3, 5 and 24 h at 30 °C incubation, 150 rpm), 100-μL aliquots were removed, serially diluted (10-fold) in saline (0.9% NaCl), and plated on YPD agar plates. The resulting CFUs were enumerated after incubation at 30 °C for 48 h. Cells treated with DMSO (1%, v/v) served as a control.

C. glabrata (ATCC 90030) = assay: Time-kill assay; assay type: cell-based
Procedure: as §3, §4, §5

Pseudomonas aeruginosa = test system: Pseudomonas aeruginosa; set-up: method as in PMID 25453797, PMID 27167126; conditions: cited from earlier work

| Structure (SMILES) | IC50 (S. cerevisiae H^+-ATPase; 1 mM ATP) [µM] | IC50 (S. cerevisiae H^+-ATPase; 10 mM ATP) [µM] | iATP (C. albicans cells) [nM] | IC50 (C. albicans) [µM] | IC50 (S. cerevisiae) [µM] | exposure time after which fungicidal activity was evident (C. albicans (SC5314); 10 µM) [h] | time-kill outcome (fungistatic or fungicidal) (C. albicans (SC5314); 5 or 10 µM, versus 1 µM AMB) | exposure time after which fungicidal activity was evident (C. glabrata (ATCC 90030); C. glabrata) [h] | time-kill outcome (fungistatic or fungicidal) (C. glabrata (ATCC 90030); wild-type C. glabrata, 5 or 10 µM, versus 1 µM AMB) | activity in bacteria reported previously (Pseudomonas aeruginosa) |
| --- | --- | --- | --- | --- | --- | --- | --- | --- | --- | --- |
| OC(Cn1ccnc1)Cn1c2ccc(Cl)cc2c2cc(Cl)ccc21 (centres unmarked) [Compound 5, 1-(3,6-dichloro-9H-carbazol-9-yl)-3-(1H-imidazol-1-yl)propan-2-ol] | 78 ± 14.9 | 60 ± 14.2 |  |  |  |  |  |  |  |  |
| OC(CN1CCOCC1)Cn1c2ccc(Cl)cc2c2cc(Cl)ccc21 (centres unmarked) [Compound 7, 1-(3,6-dichloro-9H-carbazol-9-yl)-3-morpholinopropan-2-ol] | 29.7 ± 6.7 | 16.8 ± 1.7 | 93 ± 45 | 22.2 ± 12.9 | 33.3 ± 0.6 |  |  |  |  |  |
| CN1CCN(CC(O)Cn2c3ccc(Cl)cc3c3cc(Cl)ccc32)CC1 (centres unmarked) [Compound 8, 1-(3,6-dichloro-9H-carbazol-9-yl)-3-(4-methylpiperazin-1-yl)propan-2-ol] |  |  | 70 ± 25 | 9.7 ± 6.8 | 11.1 ± 2.1 |  |  |  |  |  |
| CCC(C)NCC(O)Cn1c2ccc(Cl)cc2c2cc(Cl)ccc21 (centres unmarked) [Compound 10, 1-(sec-butylamino)-3-(3,6-dichloro-9H-carbazol-9-yl)propan-2-ol] | 4.5 ± 0.5 | 6.3 ± 1.2 | 491 ± 79 | 2.4 ± 1.2 | 2.1 ± 1 | 1 | cell death comparable to that observed for amphotericin B | 3 | cell death comparable to that observed for amphotericin B | membrane damaging activity |
| CN(C)CCCCn1c2ccc(Cl)cc2c2cc(Cl)ccc21 [Compound 15] |  |  | 53 ± 10 | 13.1 ± 7.2 | 16.2 ± 2.6 |  |  |  |  |  |
| CN1CCN(CCCn2c3ccc(Cl)cc3c3cc(Cl)ccc32)CC1 [Compound 16, 3,6-dichloro-9-(3-(4-methylpiperazin-1-yl)propyl)-9H-carbazole] |  |  | 235 ± 70 | 9.5 ± 2.5 | 7.3 ± 0.4 |  |  |  |  |  |
